Experimental data as given in patent US10322191B2, “Targeted conjugates and particles and formulations thereof” (TARVEDA THERAPEUTICS, INC., priority 2014, dated 2019).
Read-outs that look alike come from different tables or passages of the source. Bridge positions count the residues as written; N and C are the ends. Square brackets hold non-standard residues; d marks the D form. Peptide text beside a SMILES is read from it. * marks the point of attachment. NH(CH2)2SS(DM1) = COc1cc2cc(c1Cl)N(C)C(=O)C[C@H](OC(=O)[C@H](C)N(C)C(=O)CCSSCCN*)[C@]1(C)O[C@H]1[C@H](C)[C@@H]1C[C@@](O)(NC(=O)O1)[C@H](OC)/C=C/C=C(\C)C2

Legend:
[1] = system: NCI-H524 (ATCC) human lung cancer cells; format: cell-based
Description: Conjugates were assessed in an in vitro assay evaluating inhibition of cell proliferation. NCI-H524 (ATCC) human lung cancer cells were plated in 96 well, V-bottomed plates (Costar) at a concentration of 5,000 cells/well and 24 hours later were treated with compound for 2 hours and further incubated 70 hours. Compound starting dose was 20 μM and three-fold serial dilutions were done for a total of ten points. After 2 hours of treatment, cells were spun down, the drug containing media was removed, and fresh complete medium was added and used to resuspend the cells, which were spun again. After removal of the wash media, the cells were resuspended in complete medium, then transferred into white walled, flat bottomed 96 well plates. […] Proliferation was measured using CellTiter Glo reagent using the standard protocol (Promega) and a Glomax multi+detection system (Promega). Percent proliferation inhibition was calculated using the following formula: % inhibition=(control-treatment)/control*100. Control is defined as vehicle alone. IC50 curves were generated using the nonlinear regression analysis (four parameter) with GraphPad Prism 6.
Conjugates of the present invention were assessed in an in vitro assay evaluating inhibition of cell proliferation. NCI-H524 (ATCC) human lung cancer cells were plated in 96 well, V-bottomed plates (Costar) at a concentration of 5,000 cells/well. 24 hours later, cells were treated with either conjugate for 2 hours and further incubated 70 hours, or for octreotide competition experiments, treated with 100 μM octreotide for 30 min, and then treated with conjugate for 2 hours, and further incubated for 70 hours. Conjugate starting dose was 20 μM and three fold serial dilutions were done for a total of ten points. After 2 hours of treatment, cells were spun down, the drug containing media was removed, and fresh complete medium was added and used to resuspend the cells, which were spun again. After removal of the wash media, the cells were resuspended in complete medium, then transferred into white walled, flat bottomed 96 well plates. […] Proliferation was measured using CellTiter Glo reagent using the standard protocol (Promega) and a Glomax multi+detection system (Promega). Percent proliferation inhibition was calculated using the following formula: % inhibition=(control-treatment)/control*100. Control is defined as vehicle alone. IC50 curves were generated using the nonlinear regression analysis (four parameter) with GraphPad Prism 6.
Conjugates of the present invention were tested for their activity dependence on the somatostatin receptor. Active agent Z in the conjugate was selected from auristatin, carbazitaxel, DM1, doxorubicin, platinum, SN-38 and vinblastine. Active agent Z is connected to octreotide with various linkers. Proliferation IC50 values of the conjugates were measured. Proliferation IC50 values of the conjugates without octreotide competition were also measured. The ratio of IC50 with octreotide competition and IC50 without octreotide competition is an indicator of whether activity is at least partially dependent on bind to the somatostatin receptor.

[2] = system: NCI-H69 SCLC (small cell lung cancer) tumors; experiment: H69 tumor DM-1 levels by LC/MS-MS; format: in vivo, mice; conditions: 24 hour time point; dosed at 1 mg/kg (conjugates, nanoparticles) or 0.4 mg/kg for DM-1
Description: To examine the ability of conjugates of the present invention to accumulate in tumors, a murine cancer model was used. All mice were treated in accordance with the OLAW Public Health Service Policy on Human Care and Use of Laboratory Animals and the ILAR Guide for the Care and Use of Laboratory Animals. All in vivo studies were conducted following the protocols approved by the Blend Therapeutics Institutional Animal Care and Use Committee. Animals were inoculated with 2.5×10{circumflex over (0)}6 NCI-H69 SCLC (small cell lung cancer) cells in 1:1 RPMI 1640 (Invitrogen, Carlsbad, Calif.)/Matrigel® (BD Biosciences, San Jose, Calif.) via subcutaneous injection to the right flank. Tumors were allowed to reach an approximate volume of ˜500 mm3. Animals were then randomized into treatment groups of 3 animals per time point and were dosed at 1 mg/kg (10% propylene glycol in water for injection for free conjugates, or 10% sucrose for nanoparticles), or 0.4 mg/kg for DM-1 (10% propylene glycol in water for injection). The 24 hour time point was used as a benchmark across conjugates.
Tumor DM-1 levels were determined by liquid chromatography mass spectrometry (LC/MS-MS). Four volumes of 5 mM 6-maleimidohexanoic acid to 1 part tumor v/w was added and homogenized for about 10-15 seconds with a handheld homogenizer. 10 μL of 500 mM Tris(2-carboxyethyl)phosphine was added to 100 uL of tumor homogenate, mixed well and incubated at room temperature for about 5-15 min. 200-300 uL of acetonitrile was used to precipitate proteins in tumor homogenate, samples were centrifuged for 5 min, and supernatant was injected onto LC/MS-MS system for DM-1 analysis.

[3] = Table 15, treated 2 hours, further incubated 70 hours, read-out: H524 IC50
[4] = read-out: H524 IC50+ 100 uM octreotide, Table 15, 100 μM octreotide for 30 min, then conjugate 2 hours, 70 hours incubation

SMILES: COc1cc2cc(c1Cl)N(C)C(=O)C[C@H](OC(=O)[C@H](C)N(C)C(=O)CCSSCCNC(=O)CC[C@H]1C(=O)N[C@@H](Cc3ccc(O)cc3)C(=O)N[C@H](Cc3c[nH]c4ccccc34)C(=O)N[C@@H](CCCCN)C(=O)N[C@@H]([C@@H](C)O)C(=O)N[C@@H](Cc3ccccc3)C(=O)N1C)[C@]1(C)O[C@H]1[C@H](C)[C@@H]1C[C@@](O)(NC(=O)O1)[C@H](OC)/C=C/C=C(\C)C2 [Conjugate 14]
- IC50 [1, 3]: 298 nM
- IC50 [1, 4]: 877 nM
- H69 tumor DM-1 levels [2]: 70.1 nM

SMILES: COc1cc2cc(c1Cl)N(C)C(=O)C[C@H](OC(=O)[C@H](C)N(C)C(=O)CCSSCCC(=O)NCCOCCOCCOCCOCCOCCOCCOCCOCCC(=O)N[C@H](Cc1ccccc1)C(=O)N[C@H]1CSSC[C@@H](C(=O)N[C@H](CO)[C@@H](C)O)NC(=O)[C@H]([C@@H](C)O)NC(=O)[C@H](CCCCN)NC(=O)[C@@H](Cc3c[nH]c4ccccc34)NC(=O)[C@H](Cc3ccccc3)NC1=O)[C@]1(C)O[C@H]1[C@H](C)[C@@H]1C[C@@](O)(NC(=O)O1)[C@H](OC)/C=C/C=C(\C)C2 [Conjugate 6]
- IC50 ([1]; Table 6, treated 2 hours, further incubated 70 hours, read-out: H524 IC50): 234 nM
- IC50 ([1]; read-out: H524 IC50 + 100 μM octreotide, Table 6, with octreotide competition): 629 nM
- IC50 [1, 4]: 629 nM

SMILES: COc1cc2cc(c1Cl)N(C)C(=O)C[C@H](OC(=O)[C@H](C)N(C)C(=O)CCSSC1CCN(C(=O)CC[C@H]3C(=O)N[C@@H](Cc4ccc(O)cc4)C(=O)N[C@H](Cc4c[nH]c5ccccc45)C(=O)N[C@@H](CCCCN)C(=O)N[C@@H]([C@@H](C)O)C(=O)N[C@@H](Cc4ccccc4)C(=O)N3C)CC1)[C@]1(C)O[C@H]1[C@H](C)[C@@H]1C[C@@](O)(NC(=O)O1)[C@H](OC)/C=C/C=C(\C)C2 [Conjugate 28]
- IC50 [1, 3]: 669 nM
- IC50 [1, 4]: 1000 nM

SMILES: COc1cc2cc(c1Cl)N(C)C(=O)C[C@H](OC(=O)[C@H](C)N(C)C(=O)CCSSCC(=O)NCCNC(=O)CC[C@H]1C(=O)N[C@@H](Cc3ccc(O)cc3)C(=O)N[C@H](Cc3c[nH]c4ccccc34)C(=O)N[C@@H](CCCCN)C(=O)N[C@@H]([C@@H](C)O)C(=O)N[C@@H](Cc3ccccc3)C(=O)N1C)[C@]1(C)O[C@H]1[C@H](C)[C@@H]1C[C@@](O)(NC(=O)O1)[C@H](OC)/C=C/C=C(\C)C2 [Conjugate 30]
- IC50 [1, 3]: 470 nM
- IC50 [1, 4]: 2020 nM

SMILES: COc1cc2cc(c1Cl)N(C)C(=O)C[C@H](OC(=O)[C@H](C)N(C)C(=O)CCSC1CC(=O)N(CCCNC(=O)CC[C@H](NC(=O)[C@@H]3CSSC[C@H](NC(=O)[C@H](N)Cc4ccccc4)C(=O)N[C@@H](Cc4ccc(O)cc4)CN[C@H](Cc4c[nH]c5ccccc45)C(=O)N[C@@H](CCCCN)C(=O)N[C@@H]([C@@H](C)O)C(=O)N3)C(=O)NCCCN3C(=O)CC(SCCC(=O)N(C)[C@@H](C)C(=O)O[C@H]4CC(=O)N(C)c5cc(cc(OC)c5Cl)C/C(C)=C/C=C/[C@@H](OC)[C@@]5(O)C[C@H](OC(=O)N5)[C@@H](C)[C@@H]5O[C@@]45C)C3=O)C1=O)[C@]1(C)O[C@H]1[C@H](C)[C@@H]1C[C@@](O)(NC(=O)O1)[C@H](OC)/C=C/C=C(\C)C2 (some centres unmarked) [Conjugate 53]
- IC50 [1, 3]: 42 nM
- IC50 [1, 4]: 175 nM

SMILES: COc1cc2cc(c1Cl)N(C)C(=O)C[C@H](OC(=O)[C@H](C)N(C)C(=O)CCSSCCOCCOCCOCCOCCC(=O)N[C@H](Cc1ccccc1)C(=O)N[C@H]1CSSC[C@@H](C(=O)N[C@H](CO)[C@@H](C)O)NC(=O)[C@H]([C@@H](C)O)NC(=O)[C@H](CCCCN)NC(=O)[C@@H](Cc3c[nH]c4ccccc34)NC(=O)[C@H](Cc3ccccc3)NC1=O)[C@]1(C)O[C@H]1[C@H](C)[C@@H]1C[C@@](O)(NC(=O)O1)[C@H](OC)/C=C/C=C(\C)C2 [Conjugate 98]
- IC50 [1, 3]: 690 nM
- IC50 [1, 4]: 1120 nM

SMILES: COc1cc2cc(c1Cl)N(C)C(=O)C[C@H](OC(=O)[C@H](C)N(C)C(=O)CCSC1CC(=O)N(CC(=O)N[C@H](Cc3ccccc3)C(=O)N[C@H]3CSSC[C@@H](C(=O)N[C@H](CO)[C@@H](C)O)NC(=O)[C@H]([C@@H](C)O)NC(=O)[C@H](CCCCN)NC(=O)[C@@H](Cc4c[nH]c5ccccc45)NC(=O)[C@H](Cc4ccccc4)NC3=O)C1=O)[C@]1(C)O[C@H]1[C@H](C)[C@@H]1C[C@@](O)(NC(=O)O1)[C@H](OC)/C=C/C=C(\C)C2 (some centres unmarked) [Conjugate 108]
- IC50 [1, 3]: 96 nM
- IC50 [1, 4]: 1280 nM

SMILES: COc1cc2cc(c1Cl)N(C)C(=O)C[C@H](OC(=O)[C@H](C)N(C)C(=O)CCSC1CC(=O)N(CCCNC(=O)CC[C@H]3C(=O)N[C@@H](Cc4ccc(O)cc4)C(=O)N[C@H](Cc4c[nH]c5ccccc45)C(=O)N[C@@H](CCCCN)C(=O)N[C@@H]([C@@H](C)O)C(=O)N[C@@H](Cc4ccccc4)C(=O)N3C)C1=O)[C@]1(C)O[C@H]1[C@H](C)[C@@H]1C[C@@](O)(NC(=O)O1)[C@H](OC)/C=C/C=C(\C)C2 (some centres unmarked) [Conjugate 12]
- IC50 [1, 3]: 1680 nM
- IC50 [1, 4]: 2340 nM

SMILES: COc1cc2cc(c1Cl)N(C)C(=O)C[C@H](OC(=O)[C@H](C)N(C)C(=O)CCSSCCNC(=O)[C@@H]1CSSC[C@H](NC(=O)[C@H](N)Cc3ccccc3)C(=O)N[C@@H](Cc3ccc(O)cc3)C(=O)N[C@H](Cc3c[nH]c4ccccc34)C(=O)N[C@@H](CCCCN)C(=O)N[C@@H]([C@@H](C)O)C(=O)N1)[C@]1(C)O[C@H]1[C@H](C)[C@@H]1C[C@@](O)(NC(=O)O1)[C@H](OC)/C=C/C=C(\C)C2 [Conjugate 59] (H-[dF]CY[dW]KTC-{NH(CH2)2SS(DM1)}; disulfide 2-7)
- IC50 [1, 3]: 24 nM
- IC50 [1, 4]: 170 nM

SMILES: COc1cc2cc(c1Cl)N(C)C(=O)C[C@H](OC(=O)[C@H](C)N(C)C(=O)CCSSCCC(=O)NCCOCCOCCOCCNC(=O)[C@@H](NC(=O)[C@@H]1CSSC[C@H](NC(=O)[C@H](N)Cc3ccccc3)C(=O)N[C@@H](Cc3ccc(O)cc3)CN[C@H](Cc3c[nH]c4ccccc34)C(=O)N[C@@H](CCCCN)C(=O)N[C@@H]([C@@H](C)O)C(=O)N1)[C@@H](C)O)[C@]1(C)O[C@H]1[C@H](C)[C@@H]1C[C@@](O)(NC(=O)O1)[C@H](OC)/C=C/C=C(\C)C2 [Conjugate 47]
- IC50 [1, 3]: 2130 nM
- IC50 [1, 4]: 1270 nM

SMILES: COc1cc2cc(c1Cl)N(C)C(=O)C[C@H](OC(=O)[C@H](C)N(C)C(=O)CCSSCCC(=O)NCCCC[C@@H](N)C(=O)N[C@H]1CSSC[C@@H](C(=O)N[C@H](C(=O)O)[C@@H](C)O)NC(=O)[C@H]([C@@H](C)O)NC(=O)[C@H](CCCCN)NC(=O)[C@@H](Cc3c[nH]c4ccccc34)NC(=O)[C@H](Cc3ccc(O)cc3)NC1=O)[C@]1(C)O[C@H]1[C@H](C)[C@@H]1C[C@@](O)(NC(=O)O1)[C@H](OC)/C=C/C=C(\C)C2 [Conjugate 113]
- IC50 [1, 3]: 1080 nM
- IC50 [1, 4]: 4920 nM

SMILES: COc1cc2cc(c1Cl)N(C)C(=O)C[C@H](OC(=O)[C@H](C)N(C)C(=O)CCSSCCC(=O)N1CCN(C(=O)CC[C@H]3C(=O)N[C@@H](Cc4ccc(O)cc4)C(=O)N[C@H](Cc4c[nH]c5ccccc45)C(=O)N[C@@H](CCCCN)C(=O)N[C@@H]([C@@H](C)O)C(=O)N[C@@H](Cc4ccccc4)C(=O)N3C)CC1)[C@]1(C)O[C@H]1[C@H](C)[C@@H]1C[C@@](O)(NC(=O)O1)[C@H](OC)/C=C/C=C(\C)C2 [Conjugate 26]
- IC50 [1, 3]: 787 nM
- IC50 [1, 4]: 1160 nM
